Results published in ChEMBL document CHEMBL1201862, “PubChem BioAssay data set” (2004).
Active and inactive are the calls of the source.

Key:
[1] = biological target: T1, E3 ubiquitin-protein ligase XIAP (Homo sapiens, UniProt P98170); test: Counter Screen using XIAP-Bir3 for Chemical Antagonists of Bir1/2 domains of IAP-family anti-apoptotic proteins. [Related pubchem assays (depositor defined):AID1018, AID1449, AID1514, AID1638, AID1749, AID1750, AID488957, AID488963]
[2] = biological target: T1, E3 ubiquitin-protein ligase XIAP; test: XIAP antagonists, biochemical, IAP family, fluorescence polarization (AID 1018); type: functional
Troponin, cardiac muscle = Troponin, cardiac muscle (Homo sapiens, UniProt P19429+P45379+P63316); test: Fluorescence-based biochemical high throughput dose response assay for activators of the calcium sensitivity of cardiac Regulated Thin Filaments (RTF). [Related pubchem assays (depositor defined):AID493008, AID493018, AID504382, AID504383]; type: protein-complex assay
H9c2 = test: cells; type: functional, cell-based; settings: Rattus norvegicus, H9c2, Myocardium;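 also: confirmatory concentration-response retest of ultra-high-throughput screening hits for modulation of myocardial damage; cell death induced by hydrogen peroxide oxidative stress; compound pretreatment for 60 min then peroxide exposure for 2 h; potency is for protecting the cells against peroxide damage rather than for killing them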
HEK293 [3] = test: NOD1 signaling inhibitors, primary screen, cell-based, luminescence, uHTS (AID 1578); type: functional; settings: Homo sapiens
HEK293 [4] = test: cells; type: functional, cell-based; settings: Homo sapiens
HEK293 [5] = test: NOD2 signaling inhibitors in MDP-stimulated cells, cell-based, uHTS, luminescence (AID 2001); type: functional; settings: Homo sapiens
HEK293 [6] = test: cells; type: functional, cell-based; settings: Homo sapiens; remark: listed apart in the source
[7] = biological target: Nucleotide-binding oligomerization domain-containing protein 2 (Homo sapiens, UniProt Q9HC29); test: NOD2 signaling inhibitors, cell-based, luminescence, uHTS, HEK293 (AID 1566); type: functional
HEK293 [8] = test: cells; type: functional, cell-based; settings: Homo sapiens; remark: listed apart in the source

With `N#Cc1ccccc1CSc1nc2cc(Br)c[nH]c-2n1` the IC50 [1] was > 100 µM (inactive) and the IC50 [2] was > 100 µM (not active).

In the case of `O=C(O)c1ncc(-c2ccccc2)cn1`, the EC50 (Troponin, cardiac muscle) is reported as > 71.5 µM (inactive).

`Cc1nc(N2CCN(c3ccccn3)CC2)c2c(C)c(C(=O)Nc3ccccc3F)sc2n1` was tested, and the IC50 (H9c2) was > 79 µM (inactive), the EC50 (HEK293 [3]) was 12.4 µM (active) and the IC50 (HEK293 [4]) was 5.78 µM (active). The IC50 (HEK293 [5]) was 5.23 µM (active), the IC50 (HEK293 [6]) was > 20 µM (inactive) and the EC50 [7] was 3.56 µM (active). The IC50 (HEK293 [8]) was 14.3 µM (active).

In the case of `O=C(Nc1ccccc1-c1ccccc1)c1ccc(Cl)c([N+](=O)[O-])c1`, the EC50 (Troponin, cardiac muscle) is reported as > 71.5 µM (inactive).
